According to PubChem BioAssay (NCI):
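96-well plates; 48 h exposure; 5 concentrations. Endpoints by linear interpolation between flanking doses. Not reached: highest tested concentration assigned. Definition used: TGI = concentration required for complete inhibition of growth.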

Columns and labels:
Assay in all cases: NCI-60 cell line screen, 48 h
[1] = tested on: IGROV1 ovarian
[2] = tested on: UO-31 renal
[3] = tested on: CAKI-1 renal
[4] = tested on: A549 NSCLC
[5] = tested on: LOX IMVI melanoma
[6] = tested on: MDA-MB-435
[7] = tested on: TK-10 renal
[8] = tested on: HS 578T breast
[9] = tested on: OVCAR-5 ovarian
[10] = tested on: DU-145 prostate
[11] = tested on: SK-MEL-2 melanoma
[12] = tested on: MDA-N
[13] = tested on: MOLT-4 leukemia
[14] = tested on: M14 melanoma
[15] = tested on: SF-295 CNS
[16] = tested on: SN12C renal
[17] = tested on: NCI/ADR-RES ovarian
[18] = tested on: HCT-15 colon
[19] = tested on: K-562 leukemia
[20] = tested on: SF-268 CNS
[21] = tested on: SF-539 CNS
[22] = tested on: RPMI-8226 leukemia
[23] = tested on: MALME-3M melanoma
[24] = tested on: HL-60(TB) leukemia
[25] = tested on: MDA-MB-231 breast
[26] = tested on: SK-OV-3 ovarian
[27] = tested on: SW-620 colon
[28] = tested on: MCF7 breast
[29] = tested on: SK-MEL-28 melanoma
[30] = tested on: NCI-H522 lung
[31] = tested on: SNB-19 CNS
[32] = tested on: SR leukemia
[33] = tested on: HT29 colon
[34] = tested on: HCT-116 colon
[35] = tested on: 786-0 renal
[36] = tested on: RXF 393 renal
[37] = tested on: HCC-2998 colon
[38] = tested on: OVCAR-4 ovarian
[39] = tested on: NCI-H23 lung
[40] = tested on: U251 CNS
[41] = tested on: CCRF-CEM leukemia
[42] = tested on: T-47D breast
[43] = tested on: ACHN renal
[44] = tested on: EKVX NSCLC
[45] = tested on: OVCAR-8 ovarian
[46] = tested on: COLO 205 colon
[47] = tested on: PC-3 prostate
[48] = tested on: UACC-62 melanoma
[49] = tested on: NCI-H226 lung
[50] = tested on: UACC-257 melanoma
[51] = tested on: SK-MEL-5 melanoma
[52] = tested on: OVCAR-3 ovarian
[53] = tested on: KM12 colon
[54] = tested on: NCI-H460 lung
[55] = tested on: A498 renal
[56] = tested on: BT-549 breast
[57] = tested on: SNB-75 CNS
[58] = tested on: HOP-62 NSCLC
[59] = tested on: HOP-92 NSCLC

## COc1cc(/C=C2/CCCc3ccccc3C2=O)cc(OC)c1OC
[1]
  TGI: > 100 µM
[2]
  TGI: > 60.2 µM
[3]
  TGI: > 59.5 µM
[4]
  TGI: > 100 µM
[5]
  TGI: > 77 µM
[6]
  TGI: > 70.6 µM
[7]
  TGI: > 100 µM
[8]
  TGI: > 84.2 µM
[9]
  TGI: > 100 µM
[10]
  TGI: > 58.3 µM
[11]
  TGI: > 55 µM
[12]
  TGI: > 43.8 µM
[13]
  TGI: > 35 µM
[14]
  TGI: > 67.4 µM
[15]
  TGI: > 57.6 µM
[16]
  TGI: > 51.4 µM
[17]
  TGI: > 100 µM
[18]
  TGI: > 100 µM
[19]
  TGI: > 23.8 µM
[20]
  TGI: > 52.3 µM
[21]
  TGI: > 64.7 µM
[22]
  TGI: > 78.9 µM
[23]
  TGI: 29.5 µM
[24]
  TGI: > 100 µM
[25]
  TGI: > 51.4 µM
[26]
  TGI: > 68.1 µM
[27]
  TGI: > 100 µM
[28]
  TGI: > 63.9 µM
[29]
  TGI: > 100 µM
[30]
  TGI: 41 µM
[31]
  TGI: > 100 µM
[32]
  TGI: > 39.2 µM
[33]
  TGI: > 100 µM
[34]
  TGI: > 49.9 µM
[35]
  TGI: > 62 µM
[36]
  TGI: > 100 µM
[37]
  TGI: > 74 µM
[38]
  TGI: > 100 µM
[39]
  TGI: > 87 µM
[40]
  TGI: > 88.4 µM
[41]
  TGI: > 100 µM
[42]
  TGI: > 100 µM
[43]
  TGI: > 100 µM
[44]
  TGI: > 92.2 µM
[45]
  TGI: > 69.8 µM
[46]
  TGI: > 60.8 µM
[47]
  TGI: > 59.3 µM
[48]
  TGI: > 67.4 µM
[49]
  TGI: > 79.8 µM
[50]
  TGI: > 56.1 µM
[51]
  TGI: 13.6 µM
[52]
  TGI: > 55.6 µM
[53]
  TGI: > 50.1 µM
[54]
  TGI: > 100 µM
[55]
  TGI: > 75 µM
[56]
  TGI: > 78.5 µM
[57]
  TGI: > 49.9 µM
[58]
  TGI: > 58.9 µM
[59]
  TGI: > 82.2 µM

## Nc1ccc([As](=O)(O)O)cc1
[1]
  TGI: > 100 µM
[2]
  TGI: > 100 µM
[3]
  TGI: > 100 µM
[4]
  TGI: > 100 µM
[5]
  TGI: > 100 µM
[6]
  TGI: > 100 µM
[7]
  TGI: > 100 µM
[8]
  TGI: > 100 µM
[9]
  TGI: > 100 µM
[10]
  TGI: > 100 µM
[11]
  TGI: > 100 µM
[12]
  TGI: > 100 µM
[13]
  TGI: > 100 µM
[14]
  TGI: > 100 µM
[15]
  TGI: > 100 µM
[16]
  TGI: > 100 µM
[17]
  TGI: > 100 µM
[18]
  TGI: > 100 µM
[19]
  TGI: > 100 µM
[20]
  TGI: > 100 µM
[21]
  TGI: > 100 µM
[23]
  TGI: > 100 µM
[24]
  TGI: > 100 µM
[25]
  TGI: > 100 µM
[26]
  TGI: > 100 µM
[27]
  TGI: > 100 µM
[28]
  TGI: > 100 µM
[29]
  TGI: > 100 µM
[30]
  TGI: > 100 µM
[31]
  TGI: > 100 µM
[32]
  TGI: > 100 µM
[33]
  TGI: > 100 µM
[34]
  TGI: > 100 µM
[35]
  TGI: > 100 µM
[36]
  TGI: > 100 µM
[37]
  TGI: > 100 µM
[38]
  TGI: > 100 µM
[39]
  TGI: > 100 µM
[40]
  TGI: > 100 µM
[41]
  TGI: > 100 µM
[42]
  TGI: > 100 µM
[43]
  TGI: > 100 µM
[44]
  TGI: > 100 µM
[45]
  TGI: > 100 µM
[46]
  TGI: > 100 µM
[47]
  TGI: > 100 µM
[48]
  TGI: > 100 µM
[49]
  TGI: > 100 µM
[50]
  TGI: > 100 µM
[51]
  TGI: > 100 µM
[52]
  TGI: > 100 µM
[53]
  TGI: > 100 µM
[54]
  TGI: > 100 µM
[55]
  TGI: > 100 µM
[56]
  TGI: > 100 µM
[57]
  TGI: > 100 µM
[58]
  TGI: > 100 µM
[59]
  TGI: > 100 µM

## Nc1nc(Cl)cc(NCC2(CO)CC(CCCc3ccccc3)C2)n1 (stereo not drawn)
[1]
  TGI: > 100 µM
[2]
  TGI: > 100 µM
[3]
  TGI: > 100 µM
[4]
  TGI: > 100 µM
[5]
  TGI: > 100 µM
[6]
  TGI: > 100 µM
[7]
  TGI: > 100 µM
[8]
  TGI: > 100 µM
[9]
  TGI: > 100 µM
[10]
  TGI: > 100 µM
[11]
  TGI: > 100 µM
[12]
  TGI: > 100 µM
[13]
  TGI: > 100 µM
[14]
  TGI: > 100 µM
[15]
  TGI: > 100 µM
[16]
  TGI: > 100 µM
[17]
  TGI: > 100 µM
[18]
  TGI: > 100 µM
[19]
  TGI: > 100 µM
[20]
  TGI: > 100 µM
[21]
  TGI: > 100 µM
[22]
  TGI: > 100 µM
[23]
  TGI: > 100 µM
[24]
  TGI: > 100 µM
[25]
  TGI: > 100 µM
[26]
  TGI: > 100 µM
[27]
  TGI: > 100 µM
[28]
  TGI: > 100 µM
[29]
  TGI: > 100 µM
[30]
  TGI: > 100 µM
[31]
  TGI: > 100 µM
[32]
  TGI: > 100 µM
[33]
  TGI: > 100 µM
[34]
  TGI: > 100 µM
[35]
  TGI: > 100 µM
[36]
  TGI: > 78.2 µM
[37]
  TGI: > 100 µM
[38]
  TGI: > 100 µM
[39]
  TGI: > 100 µM
[40]
  TGI: > 100 µM
[41]
  TGI: > 100 µM
[42]
  TGI: > 100 µM
[43]
  TGI: > 100 µM
[44]
  TGI: > 100 µM
[45]
  TGI: > 100 µM
[46]
  TGI: > 100 µM
[47]
  TGI: > 100 µM
[48]
  TGI: > 100 µM
[49]
  TGI: > 100 µM
[50]
  TGI: > 93.7 µM
[51]
  TGI: > 100 µM
[52]
  TGI: > 100 µM
[53]
  TGI: > 100 µM
[54]
  TGI: > 100 µM
[55]
  TGI: > 100 µM
[56]
  TGI: > 100 µM
[57]
  TGI: 98.2 µM
[58]
  TGI: > 100 µM
[59]
  TGI: > 95.9 µM

## O=C(O)c1[nH]c(=O)[nH]c(=O)c1CN1CCCCC1
[1]
  TGI: > 100 µM
[2]
  TGI: > 100 µM
[3]
  TGI: > 100 µM
[4]
  TGI: > 100 µM
[5]
  TGI: > 100 µM
[6]
  TGI: > 100 µM
[7]
  TGI: > 100 µM
[8]
  TGI: > 100 µM
[9]
  TGI: > 100 µM
[10]
  TGI: > 100 µM
[11]
  TGI: > 100 µM
[12]
  TGI: > 100 µM
[14]
  TGI: > 100 µM
[15]
  TGI: > 100 µM
[16]
  TGI: > 100 µM
[17]
  TGI: > 100 µM
[18]
  TGI: > 100 µM
[19]
  TGI: > 100 µM
[20]
  TGI: > 100 µM
[22]
  TGI: > 100 µM
[23]
  TGI: > 100 µM
[24]
  TGI: > 100 µM
[25]
  TGI: > 100 µM
[26]
  TGI: > 100 µM
[27]
  TGI: > 100 µM
[28]
  TGI: > 100 µM
[29]
  TGI: > 100 µM
[30]
  TGI: > 100 µM
[31]
  TGI: > 100 µM
[32]
  TGI: > 100 µM
[33]
  TGI: > 100 µM
[34]
  TGI: > 100 µM
[35]
  TGI: > 100 µM
[36]
  TGI: > 100 µM
[37]
  TGI: > 100 µM
[38]
  TGI: > 100 µM
[39]
  TGI: > 100 µM
[40]
  TGI: > 100 µM
[41]
  TGI: > 100 µM
[42]
  TGI: > 100 µM
[43]
  TGI: > 100 µM
[44]
  TGI: > 100 µM
[45]
  TGI: > 100 µM
[46]
  TGI: > 100 µM
[47]
  TGI: > 100 µM
[48]
  TGI: > 100 µM
[49]
  TGI: > 100 µM
[50]
  TGI: > 100 µM
[51]
  TGI: > 100 µM
[52]
  TGI: > 100 µM
[53]
  TGI: > 100 µM
[54]
  TGI: > 100 µM
[55]
  TGI: > 100 µM
[56]
  TGI: > 100 µM
[57]
  TGI: > 100 µM
[58]
  TGI: > 100 µM
[59]
  TGI: > 100 µM
